Data as given in patent US12023319B2, “Carboxylic acid aromatic amides” (priority 2016, dated 2024).

Target: T1, human Bradykinin B1 receptor (Homo sapiens, UniProt P46663)
T1 construct: host or cells: CHO-K1
T1 sequence (P46663 1-353): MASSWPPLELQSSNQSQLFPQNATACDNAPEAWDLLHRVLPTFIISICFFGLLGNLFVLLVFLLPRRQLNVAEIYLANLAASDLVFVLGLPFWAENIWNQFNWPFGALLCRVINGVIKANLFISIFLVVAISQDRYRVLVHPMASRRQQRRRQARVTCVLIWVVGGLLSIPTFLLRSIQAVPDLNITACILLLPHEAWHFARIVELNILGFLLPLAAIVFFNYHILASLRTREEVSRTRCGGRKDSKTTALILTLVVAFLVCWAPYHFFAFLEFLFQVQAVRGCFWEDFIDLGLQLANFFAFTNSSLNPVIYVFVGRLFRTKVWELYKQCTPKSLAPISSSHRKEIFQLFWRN
Test: Calcium flux assay (FLIPR), CHO-K1 cells expressing human Bradykinin B1 receptor, absence of 0.1% BSA (hB1 free IC50)
Assay type: cell-based
Settings: absence of 0.1% BSA in assay buffer
Procedure, shortened: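 CHO-K1 hB1-D1 cells, dye-loaded, given compounds (8 concentrations, triplicate, 1% DMSO) 30 min at 28° C, then stimulated with selective B1 agonist peptide; Ca2+ fluorescence read at 538 nm on FLIPR. Peak response normalised to DMSO and 20 µM Lys-(Des-Arg-Leu)-Bradykinin full inhibition; IC50 fitted.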

O=C(O)c1cc(NC(=O)C2(c3ccc(C(F)(F)F)cc3F)CC2)ccc1-c1cnn(C2CCCCC2)c1 [Example 122, 2-(1-Cyclohexyl-1H-pyrazol-4-yl)-5-[({1-[2-fluoro-4-(trifluoromethyl)phenyl]cyclopropyl}carbonyl)amino]benzoic acid]
IC50: 13 nM

O=C(O)c1cc(NC(=O)C2(c3ccc(OC(F)(F)F)cc3F)CC2)ccc1-c1cnn(C2CCCCC2)c1 [Example 123, 2-(1-Cyclohexyl-1H-pyrazol-4-yl)-5-[({1-[2-fluoro-4-(trifluoromethoxy)phenyl]cyclopropyl}carbonyl)amino]benzoic acid]
IC50: 22 nM

O=C(O)c1cc(NC(=O)C2(c3ccc(C(F)(F)F)cc3F)CC2)ccc1-c1cnn(C2CC2)c1 [Example 124, 2-(1-Cyclopropyl-1H-pyrazol-4-yl)-5-[({1-[2-fluoro-4-(trifluoromethyl)phenyl]cyclopropyl}carbonyl)amino]benzoic acid]
IC50: 200 nM

O=C(O)c1cc(NC(=O)C2(c3ccc(OC(F)(F)F)cc3F)CC2)ccc1-c1cnn(C2CC2)c1 [Example 125, 2-(1-Cyclopropyl-1H-pyrazol-4-yl)-5-[({1-[2-fluoro-4-(trifluoromethoxy)phenyl]cyclopropyl}carbonyl)amino]benzoic acid]
IC50: 170 nM

O=C(O)c1cc(NC(=O)C2(c3ccc(C(F)(F)F)cc3F)CC2)cc(F)c1-c1cnn(CC2CC2)c1 [Example 126, 2-[1-(Cyclopropylmethyl)-1H-pyrazol-4-yl]-3-fluoro-5-[({1-[2-fluoro-4-(trifluoromethyl)phenyl]cyclopropyl}carbonyl)amino]benzoic acid]
IC50: 14 nM

O=C(O)c1cc(NC(=O)C2(c3ccc(OC(F)(F)F)cc3F)CC2)cc(F)c1-c1cnn(CC2CC2)c1 [Example 127, 2-[1-(Cyclopropylmethyl)-1H-pyrazol-4-yl]-3-fluoro-5-[({1-[2-fluoro-4-(trifluoromethoxy)phenyl]cyclopropyl}carbonyl)amino]benzoic acid]
IC50: 11 nM

Cc1ccc(-c2c(F)cc(NC(=O)C3(c4ccc(C(F)(F)F)cc4F)CC3)cc2C(=O)O)cn1 [Example 128, 3-Fluoro-5-[({1-[2-fluoro-4-(trifluoromethyl)phenyl]cyclopropyl}carbonyl)amino]-2-(6-methylpyridin-3-yl)benzoic acid]
IC50: 37 nM

O=C(O)c1cc(NC(=O)C2(c3ccc(C(F)(F)F)cc3F)CC2)ccc1-n1cc(C2CCC2)cn1 [Example 129, 2-(4-Cyclobutyl-1H-pyrazol-1-yl)-5-[({1-[2-fluoro-4-(trifluoromethyl)phenyl]cyclopropyl}carbonyl)amino]benzoic acid]
IC50: 620 nM

O=C(O)c1cc(NC(=O)C2(c3ccc(OC(F)(F)F)cc3F)CC2)ccc1-n1cc(C2CCC2)cn1 [Example 130, 2-(4-Cyclobutyl-1H-pyrazol-1-yl)-5-[({1-[2-fluoro-4-(trifluoromethoxy)phenyl]cyclopropyl}carbonyl)amino]benzoic acid]
IC50: 590 nM

CC[C@H](C)n1cc(-c2ccc(NC(=O)C3(c4ccc(C(F)(F)F)cc4F)CC3)cc2C(=O)O)cn1 [Example 131, 2-{1-[(2S)-Butan-2-yl]-1H-pyrazol-4-yl}-5-[({1-[2-fluoro-4-(trifluoromethyl)phenyl]cyclopropyl}carbonyl)amino]benzoic acid]
IC50: 50 nM

CC[C@H](C)n1cc(-c2ccc(NC(=O)C3(c4ccc(OC(F)(F)F)cc4F)CC3)cc2C(=O)O)cn1 [Example 132, 2-{1-[(2S)-Butan-2-yl]-1H-pyrazol-4-yl}-5-[({1-[2-fluoro-4-(trifluoromethoxy)phenyl]cyclopropyl}carbonyl)amino]benzoic acid]
IC50: 56 nM

CC[C@@H](C)n1cc(-c2ccc(NC(=O)C3(c4ccc(C(F)(F)F)cc4F)CC3)cc2C(=O)O)cn1 [Example 133, 2-{1-[(2R)-Butan-2-yl]-1H-pyrazol-4-yl}-5-[({1-[2-fluoro-4-(trifluoromethyl)phenyl]cyclopropyl}carbonyl)amino]benzoic acid]
IC50: 59 nM

CC[C@@H](C)n1cc(-c2ccc(NC(=O)C3(c4ccc(OC(F)(F)F)cc4F)CC3)cc2C(=O)O)cn1 [Example 134, 2-{1-[(2R)-Butan-2-yl]-1H-pyrazol-4-yl}-5-[({1-[2-fluoro-4-(trifluoromethoxy)phenyl]cyclopropyl}carbonyl)amino]benzoic acid]
IC50: 44 nM

CC[C@H](C)n1cc(-c2c(F)cc(NC(=O)C3(c4ccc(C(F)(F)F)cc4F)CC3)cc2C(=O)O)cn1 [Example 135, 2-{1-[(2S)-Butan-2-yl]-1H-pyrazol-4-yl}-3-fluoro-5-[({1-[2-fluoro-4-(trifluoromethyl)phenyl]cyclopropyl}carbonyl)amino]benzoic acid]
IC50: 33 nM

CC[C@@H](C)n1cc(-c2c(F)cc(NC(=O)C3(c4ccc(C(F)(F)F)cc4F)CC3)cc2C(=O)O)cn1 [Example 136, 2-{1-[(2R)-Butan-2-yl]-1H-pyrazol-4-yl}-3-fluoro-5-[({1-[2-fluoro-4-(trifluoromethyl)phenyl]cyclopropyl}carbonyl)amino]benzoic acid]
IC50: 28 nM

Cn1cc(-c2c(F)cc(NC(=O)C3(c4ccc(OC(F)(F)F)cc4F)CC3)cc2C(=O)O)cn1 [Example 137, 3-Fluoro-5-[({1-[2-fluoro-4-(trifluoromethoxy)phenyl]cyclopropyl}carbonyl)amino]-2-(1-methyl-1H-pyrazol-4-yl)benzoic acid]
IC50: 70 nM

CCn1cc(-c2c(F)cc(NC(=O)C3(c4ccc(C(F)(F)F)cc4F)CC3)cc2C(=O)O)cn1 [Example 138, 2-(1-Ethyl-1H-pyrazol-4-yl)-3-fluoro-5-[({1-[2-fluoro-4-(trifluoromethyl)phenyl]cyclopropyl}carbonyl)amino]benzoic acid]
IC50: 18 nM

CCn1cc(-c2c(F)cc(NC(=O)C3(c4ccc(OC(F)(F)F)cc4F)CC3)cc2C(=O)O)cn1 [Example 139, 2-(1-Ethyl-1H-pyrazol-4-yl)-3-fluoro-5-[({1-[2-fluoro-4-(trifluoromethoxy)phenyl]cyclopropyl}carbonyl)amino]benzoic acid]
IC50: 13 nM

CC(C)n1cc(-c2c(F)cc(NC(=O)C3(c4ccc(Cl)cc4F)CC3)cc2C(=O)O)cn1 [Example 140, 5-({[1-(4-Chloro-2-fluorophenyl)cyclopropyl]carbonyl}amino)-3-fluoro-2-(1-isopropyl-1H-pyrazol-4-yl)benzoic acid]
IC50: 21 nM

O=C(O)c1cc(NC(=O)C2(c3ccccc3)CC2)cc(F)c1-c1cnn(C2CCC2)c1 [Example 141, 2-(1-Cyclobutyl-1H-pyrazol-4-yl)-3-fluoro-5-{[(1-phenylcyclopropyl)carbonyl]amino}benzoic acid]
IC50: 2800 nM

O=C(O)c1cc(NC(=O)C2(Cc3ccc(Cl)cc3)CC2)cc(F)c1-c1cnn(C2CCC2)c1 [Example 142, 5-({[1-(4-Chlorobenzyl)cyclopropyl]carbonyl}amino)-2-(1-cyclobutyl-1H-pyrazol-4-yl)-3-fluorobenzoic acid]
IC50: 3100 nM

Cn1cc(-c2c(F)cc(NC(=O)C3(c4ccc(C(F)(F)F)cc4F)CC3)cc2C(=O)O)cn1 [Example 143, 3-Fluoro-5-[({1-[2-fluoro-4-(trifluoromethyl)phenyl]cyclopropyl}carbonyl)amino]-2-(1-methyl-1H-pyrazol-4-yl)benzoic acid]
IC50: 78 nM

CC1CCC(C2(C(=O)Nc3cc(F)c(-c4cnn(C5CCC5)c4)c(C(=O)O)c3)CC2)CC1 (centres unmarked) [Example 145, 2-(1-Cyclobutyl-1H-pyrazol-4-yl)-3-fluoro-5-({[1-(4-methylcyclohexyl)cyclopropyl]carbonyl}amino)benzoic acid]
IC50: 160 nM

O=C(O)c1cc(NC(=O)C2(c3ccc(Cl)cc3F)CC2)ccc1-c1cnc(C2CCC2)s1 [Example 146, 5-({[1-(4-Chloro-2-fluorophenyl)cyclopropyl]carbonyl}amino)-2-(2-cyclobutyl-1,3-thiazol-5-yl)benzoic acid]
IC50: 3.7 nM

Cc1ccc(C2(C(=O)Nc3ccc(-c4cnc(C5CCC5)s4)c(C(=O)O)c3)CC2)c(F)c1 [Example 147, 2-(2-Cyclobutyl-1,3-thiazol-5-yl)-5-({[1-(2-fluoro-4-methylphenyl)cyclopropyl]carbonyl}amino)benzoic acid]
IC50: 13 nM

O=C(O)c1cc(NC(=O)C2(c3ccc(C(F)(F)F)cc3F)CC2)ccc1-c1cnc(C2CCC2)s1 [Example 148, 2-(2-Cyclobutyl-1,3-thiazol-5-yl)-5-[({1-[2-fluoro-4-(trifluoromethyl)phenyl]cyclopropyl}carbonyl)amino]benzoic acid]
IC50: 3.4 nM

O=C(O)c1cc(NC(=O)C2(c3ccc(OC(F)(F)F)cc3F)CC2)ccc1-c1cnc(C2CCC2)s1 [Example 149, 2-(2-Cyclobutyl-1,3-thiazol-5-yl)-5-[({1-[2-fluoro-4-(trifluoromethoxy)phenyl]cyclopropyl}carbonyl)amino]benzoic acid]
IC50: 3.2 nM

Cc1ccc(C2(C(=O)Nc3ccc(-c4cnn(C5CC5)c4)c(C(=O)O)c3)CC2)c(F)c1 [Example 150, 2-(1-Cyclopropyl-1H-pyrazol-4-yl)-5-({[1-(2-fluoro-4-methylphenyl)cyclopropyl]carbonyl}amino)benzoic acid]
IC50: 500 nM

CC1(Cn2cc(-c3ccc(NC(=O)C4(c5ccc(C(F)(F)F)cc5F)CC4)cc3C(=O)O)cn2)CC1 [Example 151, 5-[({1-[2-Fluoro-4-(trifluoromethyl)phenyl]cyclopropyl}carbonyl)amino]-2-{1-[(1-methylcyclopropyl)methyl]-1H-pyrazol-4-yl}benzoic acid]
IC50: 22 nM
